PubChem BioAssay (NCI)
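Growth conditions: 96-well plates. Treatment: test compound, 48 hours, 5 concentrations. Analysis: linear interpolation between bracketing concentrations; unreached endpoints set to highest concentration. Abbreviation: GI50, concentration required for 50% inhibition of growth. Definition used: TGI = concentration required for complete inhibition of growth.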

Experiments:
Assay in all cases: NCI anticancer screen, dose series, 48 h
[1] = tested on: MALME-3M melanoma
[2] = tested on: HOP-92 NSCLC
[3] = tested on: M14 melanoma
[4] = tested on: A498 renal
[5] = tested on: SK-OV-3 ovarian
[6] = tested on: MCF7 breast
[7] = tested on: 786-0 renal
[8] = tested on: HCT-15 colon
[9] = tested on: OVCAR-8 ovarian
[10] = tested on: HOP-62 NSCLC
[11] = tested on: CAKI-1 renal
[12] = tested on: SK-MEL-28 melanoma
[13] = tested on: T-47D breast
[14] = tested on: A549 NSCLC
[15] = tested on: SF-295 CNS
[16] = tested on: SW-620 colon
[17] = tested on: IGROV1 ovarian
[18] = tested on: TK-10 renal
[19] = tested on: SK-MEL-5 melanoma
[20] = tested on: PC-3 prostate
[21] = tested on: OVCAR-4 ovarian
[22] = tested on: MDA-MB-435
[23] = tested on: ACHN renal
[24] = tested on: MOLT-4 leukemia
[25] = tested on: SR leukemia
[26] = tested on: SN12C renal
[27] = tested on: BT-549 breast

## CC[C@]12C=CCN3CC[C@@]4(c5ccc(OC)cc5N(C)[C@H]4[C@@](O)(C(=O)OC)[C@@H]1OC(=O)CCCC[P+](c1ccc(OC)cc1)(c1ccc(OC)cc1)c1ccc(OC)cc1)[C@@H]32
[1]
  GI50: 1130 nM
  TGI: 2410 nM
[2]
  GI50: 520 nM
  TGI: 2640 nM
[3]
  GI50: 1200 nM
  TGI: 2740 nM
[4]
  GI50: 2930 nM
  TGI: 11400 nM
[5]
  GI50: 1400 nM
  TGI: 4520 nM
[6]
  GI50: 105 nM
  TGI: 225 nM
[7]
  GI50: 2590 nM
  TGI: 8040 nM
[8]
  GI50: 8790 nM
  TGI: 22300 nM
[9]
  GI50: 1990 nM
  TGI: 9600 nM
[10]
  GI50: 2420 nM
  TGI: 7120 nM
[11]
  GI50: 15200 nM
  TGI: 29800 nM
[12]
  GI50: 486 nM
  TGI: 1730 nM
[13]
  GI50: 383 nM
  TGI: 2830 nM
[14]
  GI50: 1650 nM
  TGI: 11500 nM
[15]
  GI50: 1970 nM
  TGI: 5440 nM
[16]
  GI50: 1060 nM
  TGI: 6430 nM
[17]
  GI50: 548 nM
  TGI: 1860 nM
[18]
  GI50: 1670 nM
  TGI: 3800 nM
[19]
  GI50: 1600 nM
  TGI: 2950 nM
[20]
  GI50: 562 nM
  TGI: 5900 nM
[21]
  GI50: 1570 nM
  TGI: 11600 nM
[22]
  GI50: 521 nM
  TGI: 1830 nM
[23]
  GI50: 6280 nM
  TGI: 19700 nM
[24]
  GI50: 1180 nM
  TGI: 3210 nM
[25]
  GI50: 428 nM
  TGI: 1700 nM
[26]
  GI50: 1180 nM
  TGI: 3070 nM
[27]
  GI50: 1250 nM
